For experiment [1], the target named is T1, β-Trypsin (Bos taurus, UniProt P00760).
T1 construct: bovine β-trypsin; made in house
T1 sequence (P00760 24-246): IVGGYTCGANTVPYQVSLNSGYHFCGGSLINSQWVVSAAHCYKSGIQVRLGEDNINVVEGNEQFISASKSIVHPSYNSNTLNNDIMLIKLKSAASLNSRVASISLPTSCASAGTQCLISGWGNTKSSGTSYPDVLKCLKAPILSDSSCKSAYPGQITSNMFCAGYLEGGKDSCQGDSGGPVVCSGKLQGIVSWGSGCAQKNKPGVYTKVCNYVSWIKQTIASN
Kind of experiment: Dixon plot competitive inhibition of hydrolysis of benzyloxy-lysine-nitrophenyl ester by β-trypsin. The conditions noted are these: Dixon plots, pH 6.0; Ki (M) x 10^5; read-out: Inhibition constant Ki (M) x 10^5, β-Trypsin. In kind it is biochemical, bovine. The protocol: (§1) In accordance with the present invention, nitrophenyl m- and p-amidinophenylmethanesulfonate were prepared, and these compounds were examined for their properties related to inhibition and inactivation of specific enzymes. With regard to the enzymes employed, bovine β-trypsin and thrombin were chromatographically purified by known procedures. Human plasminogen was purified from Cohn fraction III and activated with streptokinase. Human plasma kallikrein was purified about 1000-fold from activated Cohn fraction IV, by affinity chromatography. Human thrombin was prepared by the method of Miller and Copeland. Bovine chymotrypsin three times crystallized was also employed, along with streptokinase.
(§2) Enzyme concentrations were determined by titration with nitrophenyl p-guanidinobenzoate in the case of trypsin, plasmin, and thrombin, whereas chymotrypsin molarity was based on weight. Kallikrein concentration is expressed in enzyme units as measured in a pH-state by esterase action on 0.02 M tos-Arg-OMe in 0.06 M KCl at pH 7.85; one unit corresponds to the hydrolysis of 1 μmole of ester per minute under these conditions.
(§3) Optical density change at 340 nm was measured with double beam operation as described above. […]

The target in experiment [2] is T2, α-Chymotrypsin (Bos taurus, UniProt P00766).
T2 construct: α-Chymotrypsin
The experiment is described as follows: Dixon plot competitive inhibition of hydrolysis of benzyloxy-lysine-nitrophenyl ester by α-chymotrypsin. In kind it is biochemical, bovine. The conditions noted are these: Dixon plots, pH 6.0; Ki (M) x 10^5; read-out: Inhibition constant Ki (M) x 10^5, α-Chymotrypsin. The protocol: as §1, §2, §3

For experiment [3], the target named is T3, Thrombin (bovine) (Bos taurus, UniProt P00735).
T3 construct: made in house
The experiment is described as follows: Dixon plot competitive inhibition of hydrolysis of benzyloxy-lysine-nitrophenyl ester by bovine thrombin. The class given is biochemical. The protocol:
as §1, §2, §3

For experiment [4], the target named is T4, Thrombin (human) (Homo sapiens, UniProt P00734).
T4 construct: made in house
Kind of experiment: Dixon plot competitive inhibition of hydrolysis of benzyloxy-lysine-nitrophenyl ester by human thrombin. The class given is biochemical. The conditions noted are these: Dixon plots, pH 6.0; Ki (M) x 10^5; read-out: Inhibition constant Ki (M) x 10^5, Thrombin (human). The protocol: as §1, §2, §3

The target of experiment [5] is T5, Plasmin (human) (Homo sapiens, UniProt P00747).
T5 construct: from tissue; host or cells: Cohn fraction III (human plasma)
Kind of experiment: Dixon plot competitive inhibition of esterase action of human plasmin. The conditions noted are these: Dixon plots, pH 6.0; Ki (M) x 10^5; read-out: Inhibition constant Ki (M) x 10^5, Plasmin (human). The class given is biochemical. The procedure: as §1, §2, §3

Experiment [6] addresses T6, Plasma kallikrein (human) (Homo sapiens, UniProt P03952).
T6 construct: from tissue
Kind of experiment: Dixon plot competitive inhibition of esterase action of human plasma kallikrein. In kind it is biochemical. Conditions: Dixon plots, pH 6.0; Ki (M) x 10^5; read-out: Inhibition constant Ki (M) x 10^5, Plasma kallikrein (human). The protocol:
as §1, §2, §3

Experiment [7] deals with thrombin (Bos taurus, UniProt P00735). The experiment is described as follows: presteady state kinetics of nitrophenol production by thrombin. The class given is biochemical, bovine. The procedure:
as §1
The action of thrombin on nitrophenyl p-amidinophenylmethanesulfonate was also studied in 0.05 M sodium veronal buffer, pH 7.4 (with 0.02 M Ca^2+ + at a series of reagent concentrations to determine the possible formation of an intermediate complex as a step in the inactivation process. The apparatus was the same as above and presteady state nitrophenol production was analyzed for the calculation of k2 and KS. Concentrations of the p-isomer were 0.5, 1.0, 2.0, 2.5, 3.75, and 5.0×10^-4 M. One of the progress curves is shown in FIG. 1, with this graph representing the action of thrombin (3×10^-6 M) on the p-isomer, pH 8.3, 25° C., with stoichiometric nitrophenol release accompanying inactivation. Although the full chromogeneity of nitrophenol is not reached at this pH, the final value in each case was equal to that obtained in control titrations with NPGB.

The structures appear in SMILES notation.

In general, Ki refers to a measure of affinity in units of concentration, obtained from inhibition or displacement. Broadly, the Kd is a measure of binding affinity in units of concentration.

T5 sequence (P00747 581-810 limits assumed): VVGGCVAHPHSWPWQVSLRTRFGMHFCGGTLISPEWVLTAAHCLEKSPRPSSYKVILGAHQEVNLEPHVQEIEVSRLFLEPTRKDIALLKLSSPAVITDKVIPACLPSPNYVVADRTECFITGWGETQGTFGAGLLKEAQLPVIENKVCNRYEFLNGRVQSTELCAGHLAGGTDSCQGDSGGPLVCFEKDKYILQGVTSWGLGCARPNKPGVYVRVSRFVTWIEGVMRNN
T5 sequence (P00747 97-580 limits assumed): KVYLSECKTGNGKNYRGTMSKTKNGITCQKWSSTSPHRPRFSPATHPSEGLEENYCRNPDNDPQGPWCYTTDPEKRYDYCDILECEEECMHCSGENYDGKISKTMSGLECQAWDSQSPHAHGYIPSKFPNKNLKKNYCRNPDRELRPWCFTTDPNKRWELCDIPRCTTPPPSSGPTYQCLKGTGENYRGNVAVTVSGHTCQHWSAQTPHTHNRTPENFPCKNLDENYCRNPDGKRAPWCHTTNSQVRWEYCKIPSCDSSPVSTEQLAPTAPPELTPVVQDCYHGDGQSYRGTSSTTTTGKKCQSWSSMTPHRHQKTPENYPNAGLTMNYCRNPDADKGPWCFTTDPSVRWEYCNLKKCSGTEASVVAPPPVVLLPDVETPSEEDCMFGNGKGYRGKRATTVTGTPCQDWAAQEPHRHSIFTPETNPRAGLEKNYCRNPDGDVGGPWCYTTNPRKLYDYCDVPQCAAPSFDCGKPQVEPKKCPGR
T6 sequence (P03952 391-638 limits assumed): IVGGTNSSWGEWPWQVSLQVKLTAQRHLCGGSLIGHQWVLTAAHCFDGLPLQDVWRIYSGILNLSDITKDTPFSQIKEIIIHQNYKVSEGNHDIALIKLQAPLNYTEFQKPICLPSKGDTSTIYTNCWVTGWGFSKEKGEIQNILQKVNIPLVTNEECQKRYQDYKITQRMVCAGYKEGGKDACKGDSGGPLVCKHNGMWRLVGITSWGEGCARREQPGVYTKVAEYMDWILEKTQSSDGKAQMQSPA
T6 sequence (P03952 20-390 limits assumed): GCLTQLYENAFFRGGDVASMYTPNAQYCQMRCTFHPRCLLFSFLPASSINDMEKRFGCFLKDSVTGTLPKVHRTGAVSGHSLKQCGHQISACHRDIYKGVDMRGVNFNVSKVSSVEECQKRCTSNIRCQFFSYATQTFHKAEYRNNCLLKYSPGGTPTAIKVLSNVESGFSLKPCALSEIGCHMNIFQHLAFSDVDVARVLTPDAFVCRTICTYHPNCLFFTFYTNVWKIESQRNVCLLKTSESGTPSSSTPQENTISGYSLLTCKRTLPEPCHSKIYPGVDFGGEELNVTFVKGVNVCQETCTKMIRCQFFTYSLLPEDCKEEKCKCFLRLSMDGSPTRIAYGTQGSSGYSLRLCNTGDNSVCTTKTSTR

Turning to `N=C(N)c1cccc(CS(=O)(=O)Oc2ccc([N+](=O)[O-])cc2)c1` [m-isomer], the inhibition constant Ki came to 9e-06 M in experiment [1]; 1.3e-05 M in experiment [2]; 415 µM in experiment [3]; 5.3e-05 M in experiment [4]; 4.2e-05 M in experiment [5]; 1.9e-05 M in experiment [6].
In the case of `N=C(N)c1ccc(CS(=O)(=O)Oc2ccc([N+](=O)[O-])cc2)cc1` [p-isomer], the Ki is 7e-05 M in experiment [1]; 3.6e-05 M in experiment [2]; 0.0005 M in experiment [5]; 4.7e-05 M in experiment [6]; 120 µM in experiment [7]. In experiment [7], this molecule returned a Kd of 120 µM. Moreover, in experiment [7] (presteady state kinetics, pH 7.4, read-out: rate constant for inactive enzyme formation, k2 (converted)), the kinact is 0.0193 s⁻¹.

The values above are taken from US4150049A, “Esters of aromatic sulfonic acids” (The Government of the United States, priority 1977, dated 1979).
